Assay results from ChEMBL document CHEMBL1799932, “Antimalarial pyrido[1,2-a]benzimidazoles” (J Med Chem, 2011).

Columns and labels:
[1] = test system: Rattus norvegicus; assay: Tmax in fasted Sprague-Dawley rat assessed as 1-(2-Ethylaminoethylamino)-3-[4-(trifluoromethyl)phenyl]- pyrido[1,2-a]benzimidazole-4-carbonitrile level at 5 mg/kg, iv after 48 hrs by LC-MS analysis; assay type: ADME, organism-based; parameters: dose 5 mg/kg, route intravenous; conditions: in vivo
[2] = test system: Rattus norvegicus; assay: AUC (0 to tlast) in fasted Sprague-Dawley rat assessed as 1-(2-Ethylaminoethylamino)-3-[4-(trifluoromethyl)phenyl]- pyrido[1,2-a]benzimidazole-4-carbonitrile level at 5 mg/kg, iv after 48 hrs by LC-MS analysis; assay type: ADME, organism-based, Plasma; parameters: time < 48 hr, dose 5 mg/kg, route intravenous; conditions: in vivo
[3] = test system: Plasmodium berghei; assay: Antimalarial activity against GFP-transfected Plasmodium berghei strain ANKA infected in NMRI mouse assessed as reduction in parasitemia at 100 mg/kg/day, po administered for 4 consecutive days measured 24 hrs after last treatment by FACS analysis relative to control; assay type: functional; parameters: scale not given: the % may be the effect or the level left
[4] = test system: Rattus norvegicus; assay: Drug excretion in fasted Sprague-Dawley rat urine assessed as 1-(2-Diethylaminoethylamino)-3-[4-(trifluoromethyl)phenyl]-pyrido[1,2-a]benzimidazole-4-carbonitrile at 20 mg/kg, po after 48 hrs by LC-MS analysis; assay type: ADME, organism-based; parameters: dose 20 mg/kg, route oral; conditions: in vivo
[5] = test system: Rattus norvegicus; assay: Cmax in fasted Sprague-Dawley rat assessed as 1-(2-Ethylaminoethylamino)-3-[4-(trifluoromethyl)phenyl]- pyrido[1,2-a]benzimidazole-4-carbonitrile level at 5 mg/kg, iv after 48 hrs by LC-MS analysis; assay type: ADME, organism-based; parameters: dose 5 mg/kg, route intravenous; conditions: in vivo
[6] = test system: Plasmodium berghei; assay: Antimalarial activity against GFP-transfected Plasmodium berghei strain ANKA infected in NMRI mouse assessed as increase in median survival time at 100 mg/kg/day, po administered for 4 days measured up to 30 days post infection (reference value: 5 to 7 days); assay type: functional
[7] = Metabolic stability in mouse liver microsomes assessed as degradation half life after 60 mins by LC-MS analysis; assay type: ADME, Microsome
[8] = test system: Plasmodium berghei; assay: Antimalarial activity against GFP-transfected Plasmodium berghei strain ANKA infected in NMRI mouse assessed as reduction in parasitemia at 50 mg/kg, po administered as single dose measured on day 4 by FACS analysis; assay type: functional; parameters: scale not given: the % may be the effect or the level left
[9] = test system: Rattus norvegicus; assay: Drug excretion in fasted Sprague-Dawley rat urine assessed as 1-(2-Ethylaminoethylamino)-3-[4-(trifluoromethyl)phenyl]- pyrido[1,2-a]benzimidazole-4-carbonitrile level at 5 mg/kg, iv after 48 hrs by LC-MS analysis; assay type: ADME, organism-based; parameters: dose 5 mg/kg, route intravenous; conditions: in vivo
[10] = Metabolic stability in human liver microsomes assessed as degradation half life after 60 mins by LC-MS analysis; assay type: ADME, Microsome
[11] = test system: Plasmodium berghei; assay: Antimalarial activity against GFP-transfected Plasmodium berghei strain ANKA infected in NMRI mouse assessed as reduction in parasitemia at 25 mg/kg, po administered as single dose measured on day 4 by FACS analysis; assay type: functional; parameters: scale not given: the % may be the effect or the level left

CCN(CC)CCNc1cc(-c2ccc(C(F)(F)F)cc2)c(C#N)c2nc3ccccc3n12.Cl.Cl
Tmax [1]: 640 min | AUClast [2]: 666 µM·min | Activity [3]: 96.2% | Activity [4]: 0.05% | Cmax [5]: 540 nM | MSD [6]: 16 days | half-life [7]: 24.1 min | Activity [8]: 59.97% | Activity [9]: 0.08% | half-life [10]: 13.7 min | Activity [11]: 51.13%
